{"source": "paper PMC6814738", "about": "“Bacterial MgrB peptide activates chemoreceptor Fpr3 in mouse accessory olfactory system and drives avoidance behaviour” (Nature Communications, 2019)", "test_system": "vomeronasal sensory neurons (VSNs)", "assay": "Density of responding VSN knobs in mice of various genotypes, Rhod-2 Ca2+ imaging (Fig. 7a, b)", "type": "cell-based, mouse", "details": "f-MKKFRW 1 µM or PUM; for density of responding knobs: mean ± s.d.", "text": "Mice (6–20 week old, either sex) were euthanized by CO2 inhalation according to institutional guidelines. After decapitation, the skin was removed from the skull, the mandible was cut off and the cranium was opened by a sagittal cut, 1–2-mm right-lateral in parallel to the midline. The palate and the right incisor were removed and the hemisected skull was mounted in low-melting agarose (4%). The bony capsule of the VNO was opened with fine forceps and the nonsensory epithelium was stripped off. Tissue and cell debris were gently washed off, and the en face preparation was superfused with physiological S1 solution (120 mM NaCl, 25 mM NaHCO3, 5 mM KCl, 1 mM MgSO4, 1 mM CaCl2, 10 mM glucose, 5 mM BES, pH 7.3) saturated with carbogen (95% O2, 5% CO2).\nLoading of the VNE with Rhod-2/AM (5–15 µM, 1 h) was performed in S1 solution under carbogen atmosphere at RT. Images were taken with an upright confocal laser scanning microscope (Leica TCS SP5 II, 20x water immersion objective HCX APO L20x/1.0w) equipped with Ar and He/Ne lasers. GFP was excited at 488 nm, Venus at 514 nm and Rhod-2 at 543 nm. Emission was measured at 490–520 nm (GFP), 520–600 nm (Venus) and 560–680 nm (Rhod-2). To minimise interference between Venus and Rhod-2 fluorescence, images were taken sequentially (sample interval per image, 3–4 s). Peptide stimuli were applied to the VNE surface with a local perfusion system which, when positioned close to the anterior end of the VNO, produced a continuous solution stream from rostral to caudal along the VNO axis. Data analysis was performed with the open source software ImageJ (NIH). Ca^2+ responses of individual dendritic knobs were normalised to the knob resting fluorescence level obtained before stimulation (ratio Fx/F0, Fx = actual fluorescence; F0 = mean fluorescence of 3–5 images before ligand application). Mapping was performed by superimposing Ca^2+ peak images onto images showing intrinsic fluorescence for specific markers.\nPredator urine mix was composed of urine from mountain lion, coyote, bobcat, fox and marten (at equal volume ratios), purchased from Predatorpee (USA) and Kieferle (Germany). The fMet peptides were as described above. Stimuli were applied in S2 solution (140 mM NaCl, 5 mM KCl, 10 mM HEPES, 1 mM CaCl2, 1 mM MgCl2, 10 mM glucose, pH 7.3 with NaOH).\nFor calculations of VSN knob density, we analysed randomly selected VNE areas, each containing several hundred knobs. The mean density of OMP-GFP+ knobs was 11.25 knobs/100 µm². Through the knob density and the VNE surface area, an estimate of the total number of VSNs per VNO can be made. Assuming a mean lumen diameter of 450 µm, a length of 2 mm and an end-to-end semilunar cross-sectional shape of the VNO, a number of ~150,000 VSNs (per side) can be estimated. This number is consistent with our previous estimates.", "key": {"[1]": {"details": "B6, B2m-Venus+/− and NP2∆+/− mice pooled, n = 14 mice"}}, "note": "Entries after “also recorded” stand apart in the source; their conditions may differ. Peptide text beside a SMILES is read from it. * marks the point of attachment. For = O=C*", "data": [{"smiles": "CSCC[C@H](NC=O)C(=O)N[C@@H](CCCCN)C(=O)N[C@@H](CCCCN)C(=O)N[C@@H](Cc1ccccc1)C(=O)N[C@@H](CCCNC(=N)N)C(=O)N[C@@H](Cc1c[nH]c2ccccc12)C(=O)O", "note": "[f-MKKFRW] (For-MKKFRW-OH)", "values": [{"measurement": "VSN Ca2+ responses, in words", "setting": "129Sv mice", "result": "no responses; also recorded: fail to respond"}, {"measurement": "density of responding knobs", "setting": "B2m-Venus +/−", "result": "0.2 ± 0.1", "unit": "%"}, {"measurement": "density of responding knobs", "setting": "B6", "result": "0.12 ± 0.04", "unit": "%"}, {"measurement": "density of responding knobs", "setting": "NP2∆ +/−", "result": "0.2 ± 0.09", "unit": "%"}, {"measurement": "VSN Ca2+ responses, in words", "setting": "Trpc2 −/− mice", "result": "absent; also recorded: fail to respond"}, {"measurement": "VSN Ca2+ responses, in words", "setting": "cGαo −/− mice", "result": "absent; also recorded: fail to respond"}, {"measurement": "density of responding knobs, mean", "setting": "[1]", "result": "0.16 ± 0.08", "unit": "%"}, {"measurement": "density of responding knobs, range", "setting": "[1]", "result": "0.07 to 0.29", "unit": "%"}, {"measurement": "VSN Ca2+ responses, in words", "setting": "∆Fpr3-lacZ −/− mice", "result": "absent; also recorded: fail to respond"}]}]}
